± gives the standard deviation of the averaged measurements.
Columns and labels:
Assay in all cases: level (log10 ratio to DMSO vehicle control); higher = higher biomarker level / cell amount than vehicle control
Settings in all cases: in DMSO
[1] = compound: CC(C)(C)C(=O)CC(=O)C(F)(F)C(F)(F)C(F)(F)F [(Heptafluorobutanoyl)pivaloylmethane]
Protocol: (§1)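 BioMAP Diversity Plus panel of 12 human primary cell co-culture systems (3C, 4H, LPS, SAg, BT, BF4T, BE3C, CASM3C, HDF3CGF, KF3CT, MyoF, Mphg). Compounds were added 1 h before stimulation and left for 24 h (MyoF 48 h; BT 72 h for soluble read-outs or 6 d for IgG). Biomarkers were read by ELISA, cytotoxicity by SRB, PBMC viability and proliferation by Alamar Blue. Each well value was divided by the mean of 8 DMSO control wells on the same plate and log10 transformed; duplicate blinded samples were tested at 4 concentrations.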

[2] = compound: FC(F)(F)C(F)(F)C(F)(F)C(F)(F)C(F)(F)C(F)(F)C(F)(F)CCI [1-Iodo-1H,1H,2H,2H-perfluorononane]
Protocol: as §1

Perfluorooctanamide = compound: NC(=O)C(F)(F)C(F)(F)C(F)(F)C(F)(F)C(F)(F)C(F)(F)C(F)(F)F [Perfluorooctanamide]
Protocol: as §1

[3] = compound: O=C(O)C(F)(F)C(F)(F)C(F)(F)C(F)(F)C(F)(F)C(F)(F)C(F)(F)C(F)(F)C(F)(F)C(F)(F)C(F)(F)C(F)(F)C(F)(F)F [Perfluorotetradecanoic acid]
Protocol: as §1

[4] = compound: O=C(O)CCC(F)(F)C(F)(F)C(F)(F)C(F)(F)C(F)(F)F [2H,2H,3H,3H-Perfluorooctanoic acid]
Protocol: as §1

[5] = compound: O=S(=O)(O)C(F)(F)C(F)(F)C(F)(F)C(F)(F)F [Perfluorobutanesulfonic acid]
Protocol: as §1

1H,1H-Heptafluorobutanol = compound: OCC(F)(F)C(F)(F)C(F)(F)F [1H,1H-Heptafluorobutanol]
Protocol: as §1

Test System | level (log10) ([1]; 6700 nM) | level (log10) ([1]; 20000 nM) | level (log10) ([1]; 60000 nM) | level (log10) ([2]; 6700 nM) | level (log10) ([2]; 20000 nM) | level (log10) (Perfluorooctanamide; 6700 nM) | level (log10) (Perfluorooctanamide; 20000 nM) | level (log10) (Perfluorooctanamide; 60000 nM) | level (log10) ([3]; 6700 nM) | level (log10) ([3]; 20000 nM) | level (log10) ([4]; 6700 nM) | level (log10) ([4]; 20000 nM) | level (log10) ([4]; 60000 nM) | level (log10) ([5]; 6700 nM) | level (log10) ([5]; 20000 nM) | level (log10) ([5]; 60000 nM) | level (log10) (1H,1H-Heptafluorobutanol; 6700 nM) | level (log10) (1H,1H-Heptafluorobutanol; 20000 nM) | level (log10) (1H,1H-Heptafluorobutanol; 60000 nM)
CASM3C:CD106/VCAM-1 | -0.006 ± 0.014 | -0.004 ± 0.021 | -0.002 ± 0.03 | -0.019 ± 0.0099 | -0.0645 ± 0.012 | -0.0245 ± 0.005 | -0.014 ± 0.028 | -0.004 ± 0.027 | -0.023 ± 0.041 | -0.0065 ± 0.073 | 0.0025 ± 0.019 | 0.0115 ± 0.044 | 0.01 ± 0.018 | -0.0465 ± 0.021 | -0.0255 ± 0.025 | -0.033 ± 0.0057 | 0.0035 ± 0.033 | 0.0065 ± 0.012 | -0.0015 ± 0.0092
CASM3C:CD141/Thrombomodulin | -0.008 ± 0.033 | -0.005 ± 0.018 | -0.038 ± 0.0042 | 0.0135 ± 0.0035 | 0.0065 ± 0.03 | -0.0225 ± 0.021 | 0.0155 ± 0.0021 | 0.015 ± 0.0071 | 0.0555 ± 0.064 | 0.056 ± 0.044 | -0.01 ± 0.04 | -0.036 ± 0.052 | -0.014 | 0.01 ± 0.028 | -0.0095 ± 0.016 | 0.0075 ± 0.016 | -0.01 ± 0.013 | -0.0065 ± 0.0021 | -0.0145 ± 0.005
CASM3C:CD142/Tissue Factor | -0.017 ± 0.0057 | -0.0275 ± 0.0035 | -0.037 ± 0.027 | 0.0155 ± 0.049 | -0.055 ± 0.0028 | -0.0085 ± 0.046 | -0.0095 ± 0.0064 | -0.003 ± 0.051 | -0.005 ± 0.038 | -0.002 ± 0.041 | -0.0115 ± 0.022 | -0.0505 ± 0.0092 | -0.0095 ± 0.022 | -0.0085 ± 0.0035 | -0.0115 ± 0.018 | 0.0135 ± 0.012 | 0.0005 ± 0.0078 | -0.0225 ± 0.013 | -0.015 ± 0.0057
CASM3C:CXCL8/IL-8 | -0.006 ± 0.0042 | -0.018 ± 0.0028 | -0.0045 ± 0.025 | 0.004 ± 0.0042 | 0.004 ± 0.0028 | 0.013 ± 0.025 | 0.013 ± 0.016 | 0.044 ± 0.014 | 0.012 ± 0.016 | 0.016 ± 0.028 | 0.0055 ± 0.018 | -0.0055 ± 0.0021 | 0.0175 ± 0.00071 | 0.0255 ± 0.049 | 0.0255 ± 0.025 | 0.0375 ± 0.025 | 0.007 ± 0.0099 | 0.0045 ± 0.021 | 0.014 ± 0.04
CASM3C:CXCL9/MIG | -0.004 ± 0.0014 | -0.0085 ± 0.00071 | 0.006 ± 0.011 | -0.0355 ± 0.025 | -0.057 ± 0.042 | -0.0205 ± 0.037 | 0.0135 ± 0.0021 | 0.0365 ± 0.032 | -0.0375 ± 0.042 | 0.0295 ± 0.057 | -0.0185 ± 0.00071 | -0.0285 ± 0.0092 | 0.0045 ± 0.042 | 0.01 ± 0.028 | 0.0135 ± 0.035 | 0.0465 ± 0.0092 | 0.003 ± 0.0014 | -0.006 ± 0.013 | 0.015 ± 0.044
CASM3C:HLA-DR | 0.011 ± 0.0014 | 0.0005 ± 0.0092 | 0.0255 ± 0.0035 | 0.0055 ± 0.0064 | -0.007 ± 0.0071 | 0.003 ± 0.041 | 0.0125 ± 0.0092 | 0.0005 ± 0.011 | -0.0195 ± 0.0078 | -0.022 ± 0.073 | 0.004 ± 0.0057 | -0.026 ± 0.021 | -0.014 | -0.0085 ± 0.0035 | -0.0075 ± 0.00071 | -0.0025 ± 0.0078 | 0.015 ± 0.0057 | -0.004 ± 0.0028 | 0.011 ± 0.0028
CASM3C:IL-6 | -0.0155 ± 0.0064 | -0.0375 ± 0.018 | -0.0145 ± 0.028 | -0.0105 ± 0.013 | 0.0315 ± 0.056 | 0.0435 ± 0.036 | -0.0225 ± 0.015 | 0.008 ± 0.023 | 0.002 ± 0.051 | 0.0135 ± 0.094 | -0.0035 ± 0.0064 | -0.008 ± 0.0057 | 0.0145 ± 0.05 | -0.032 ± 0.028 | -0.0375 ± 0.0021 | -0.015 ± 0.0057 | 0 ± 0.033 | -0.0125 ± 0.011 | 0.018 ± 0.042
CASM3C:LDLR | -0.004 ± 0.017 | -0.0085 ± 0.0035 | -0.0075 ± 0.018 | -0.016 ± 0.021 | 0.026 ± 0.024 | -0.0175 ± 0.0035 | 0.0135 ± 0.026 | 0.031 ± 0.027 | -0.0135 ± 0.013 | -0.028 ± 0.014 | 0.0005 ± 0.0021 | -0.001 ± 0.018 | 0.0095 ± 0.047 | -0.0305 ± 0.0035 | -0.0255 ± 0.025 | -0.0345 ± 0.053 | -0.0025 ± 0.0035 | 0.012 ± 0.011 | 0.006 ± 0.03
CASM3C:M-CSF | 0.002 ± 0.017 | -0.0165 ± 0.013 | -0.016 ± 0.014 | -0.0035 ± 0.0078 | 0.0125 ± 0.028 | -0.0055 ± 0.04 | 0.0035 ± 0.03 | 0.027 ± 0.048 | 0.006 ± 0.025 | -0.0065 ± 0.043 | -0.006 ± 0.0028 | -0.0035 ± 0.0064 | 0.0185 ± 0.06 | -0.007 ± 0.031 | -0.002 | 0.0025 ± 0.011 | 0.006 ± 0.021 | 0.03 ± 0.041 | 0.038 ± 0.016
CASM3C:PAI-I | -0.004 ± 0.0028 | -0.0035 ± 0.0064 | 0.003 ± 0.0099 | 0.0015 ± 0.00071 | 0.0035 ± 0.00071 | -0.0015 ± 0.0064 | 0.004 ± 0.0057 | -0.0015 ± 0.016 | 0.007 ± 0.0028 | 0.013 ± 0.0014 | -0.0015 ± 0.013 | -0.0045 ± 0.019 | -0.012 ± 0.0099 | -0.0095 ± 0.012 | 0.0035 ± 0.0064 | 0.007 ± 0.0099 | 0.0015 ± 0.0092 | -0.0045 ± 0.00071 | 0.009 ± 0.0042
CASM3C:Proliferation | -0.032 ± 0.03 | 0.0195 ± 0.0092 | -0.017 ± 0.037 | -0.001 | 0.0105 ± 0.04 | -0.0135 ± 0.005 | -0.036 ± 0.027 | -0.0415 ± 0.015 | 0.0075 ± 0.028 | -0.018 ± 0.0057 | -0.014 ± 0.045 | 0.002 ± 0.0014 | 0.011 ± 0.04 | -0.0455 ± 0.044 | -0.0405 ± 0.013 | -0.019 ± 0.017 | -0.005 ± 0.014 | 0.0045 ± 0.025 | 0.024 ± 0.055
CASM3C:SRB | 0.01 ± 0.0014 | -0.002 ± 0.0014 | 0.0035 ± 0.00071 | -0.0025 ± 0.0021 | -0.0015 ± 0.0064 | 0 ± 0.0071 | -0.002 ± 0.0014 | -0.003 ± 0.0014 | -0.011 ± 0.0028 | 0.0025 ± 0.0092 | -0.0045 ± 0.015 | -0.0105 ± 0.00071 | -0.0105 ± 0.0021 | -0.0045 ± 0.0035 | -0.0045 ± 0.0035 | -0.008 ± 0.0028 | -0.0025 ± 0.0092 | 0.0125 ± 0.0021 | 0.009 ± 0.0028
CASM3C:Serum Amyloid A | 0.014 ± 0.035 | 0.001 ± 0.064 | -0.009 ± 0.024 | -0.007 ± 0.031 | 0.0135 ± 0.076 | -0.034 ± 0.044 | -0.0465 ± 0.069 | -0.062 ± 0.051 | 0.033 ± 0.048 | -0.007 ± 0.014 | -0.0045 ± 0.0078 | -0.0195 ± 0.0092 | -0.0495 ± 0.028 | -0.0575 ± 0.08 | -0.0795 ± 0.071 | -0.068 ± 0.055 | -0.029 ± 0.04 | 0.012 ± 0.035 | 0.018 ± 0.021
HDF3CGF:CCL2/MCP-1 | -0.0285 ± 0.016 | 0.027 | -0.0065 ± 0.025 | -0.034 ± 0.017 | -0.018 ± 0.016 | -0.023 ± 0.0057 | -0.0145 ± 0.022 | -0.033 ± 0.0014 | 0.0235 ± 0.016 | 0.0285 ± 0.029 | 0.0015 ± 0.029 | 0.003 ± 0.0085 | 0.0065 ± 0.0078 | -0.0075 ± 0.037 | 0.0005 ± 0.025 | -0.023 ± 0.03 | 0.001 ± 0.014 | 0.0225 ± 0.021 | -0.009 ± 0.03
HDF3CGF:CD54/ICAM-1 | 0 ± 0.0057 | -0.0075 ± 0.013 | 0.0065 ± 0.00071 | -0.0105 ± 0.016 | 0.0095 ± 0.0035 | -0.009 | 0.002 ± 0.0085 | -0.02 ± 0.016 | -0.0015 ± 0.029 | -0.023 ± 0.033 | -0.0095 ± 0.0064 | -0.0215 ± 0.019 | -0.036 ± 0.023 | -0.009 ± 0.016 | -0.0145 ± 0.0021 | 0.003 ± 0.011 | -0.008 ± 0.0042 | 0.0005 ± 0.0021 | 0.0045 ± 0.0092

Source: the supplement of paper PMC10331698
